# Patent publication US11464770B2, “Anticancer pharmaceutical composition” (NATIONAL CANCER CENTER, priority 2016, dated 2022)
# Where two headings read alike, the source gives them in different places.
# What was measured:
# [1] = tested on: colorectal cancer cell lines (e.g. DLD-1, HCT 116, SW620, HCT-15, HCT-8, RKO); test: Cell based assay, cell viability (CellTiter-Glo), colorectal cancer cell lines
# Experimental: (§1) Commercially available bladder cancer, prostate cancer, lung cancer, breast cancer, blood cancer, pancreatic cancer, colorectal cancer, brain cancer, neuroblastoma, melanoma, liver cancer, cervical carcinoma, ovarian cancer, renal cancer, and papilloma cell lines were each treated with trypsin-EDTA and cultured, followed by being seeded in each well of a 96 well plate. After 24 hours of treatment at constant temperature, the respective cells were treated with the candidate compound so that a final concentration became 0 to 2 μM. The treated cells were additionally cultured for 72 hours, and cell viability was measured by using an ATP detection method (CellTiter-Glo® Luminescent Cell Viability Assay, Promega).
# melanoma cell lines = test: Cell based assay, cell viability (CellTiter-Glo), melanoma cell lines; conditions: Homo sapiens; LOX-IMVI cell line
# Experimental: as §1
# [2] = tested on: ovarian cancer cell lines; test: Cell based assay, cell viability (CellTiter-Glo), ovarian cancer cell lines; conditions: Homo sapiens; OVCAR-3 cells
# Experimental: as §1
# [3] = Homo sapiens, DLD-1, 72 hours treatment, read-out: IC50, colorectal cancer cell line DLD-1
# [4] = Homo sapiens, HCT 116, 72 hours treatment, read-out: IC50, colorectal cancer cell line HCT 116
# [5] = Homo sapiens, HCT-8, 72 hours treatment, read-out: IC50, colorectal cancer cell line HCT-8
# [6] = Homo sapiens, HCT-15, 72 hours treatment, read-out: IC50, colorectal cancer cell line HCT-15
# [7] = Homo sapiens, HT-29, 72 hours treatment, read-out: IC50, colorectal cancer cell line HT-29
# [8] = Homo sapiens, LoVo, 72 hours treatment, read-out: IC50, colorectal cancer cell line LoVo
# [9] = Homo sapiens, SW480, 72 hours treatment, read-out: IC50, colorectal cancer cell line SW480
# [10] = Homo sapiens, SW-620, SW620, 72 hours treatment, read-out: IC50, colorectal cancer cell line SW620
# [11] = RKO, 72 hours treatment, read-out: IC50, colorectal cancer cell line RKO
# [12] = Homo sapiens, DLD-1 cells, 72 hours treatment, read-out: IC50, colorectal cancer cell line DLD-1
# [13] = Homo sapiens, HCT 116 cells, 72 hours treatment, read-out: IC50, colorectal cancer cell line HCT 116
# [14] = Homo sapiens, HCT-8 cells, 72 hours treatment, read-out: IC50, colorectal cancer cell line HCT-8
# [15] = Homo sapiens, HCT-15 cells, 72 hours treatment, read-out: IC50, colorectal cancer cell line HCT-15
# [16] = Homo sapiens, HT-29 cells, 72 hours treatment, read-out: IC50, colorectal cancer cell line HT-29
# [17] = Homo sapiens, LoVo cells, 72 hours treatment, read-out: IC50, colorectal cancer cell line LoVo
# [18] = Homo sapiens, RKO cells, 72 hours treatment, read-out: IC50, colorectal cancer cell line RKO
# [19] = Homo sapiens, SW480 cells, 72 hours treatment, read-out: IC50, colorectal cancer cell line SW480
# [20] = Homo sapiens, SW-620, SW620 cells, 72 hours treatment, read-out: IC50, colorectal cancer cell line SW620
SMILES,"IC50 [1, 3] [µM]","IC50 [1, 4] [µM]","IC50 [1, 5] [µM]","IC50 [1, 6] [µM]","IC50 [1, 7] [µM]","IC50 [1, 8] [µM]","IC50 [1, 9] [µM]","IC50 [1, 10] [µM]","IC50 [1, 11] [µM]",IC50 (melanoma cell lines) [µM],IC50 [2] [µM],"IC50 [1, 12] [µM]","IC50 [1, 13] [µM]","IC50 [1, 14] [µM]","IC50 [1, 15] [µM]","IC50 [1, 16] [µM]","IC50 [1, 17] [µM]","IC50 [1, 18] [µM]","IC50 [1, 19] [µM]","IC50 [1, 20] [µM]"
"CC(=O)c1c(S/C=C\C(=O)O)[nH]c2c(Br)ccc(Cl)c2c1=O [Compound 67, (Z)-3-((3-acetyl-8-bromo-5-chloro-4-oxo-1,4-dihydroquinolin-2-yl)thio)acrylic acid]",> 2,> 2,> 2,> 2,> 10,> 2,> 2,> 2,> 2,> 2,> 2,,,,,,,,,
"CC(=O)c1c([S+]([O-])Cc2ccc(S(F)(F)(F)(F)F)cc2)[nH]c2c(Br)ccc(Cl)c2c1=O (centres unmarked) [Compound 68, 3-acetyl-8-bromo-5-chloro-2-((4-(pentafluoro-16-sulfanyl)benzyl)sulfinyl)quinolin-4(1H)-one]",0.78,1.09,1.3,0.98,> 2,> 2,1.75,1.66,1.33,0.96,1.16,,,,,,,,,
"CC(=O)c1c([S+]([O-])Cc2ccc(S(F)(F)(F)(F)F)cc2F)[nH]c2c(Br)ccc(Cl)c2c1=O (centres unmarked) [Compound 69, 3-acetyl-8-bromo-5-chloro-2-((2-fluoro-4-(pentafluoro-16-sulfanyl)benzyl)sulfinyl)quinolin-4(1H)-one]",0.92,1.52,1.91,1.42,> 10,> 2,> 2,1.77,1.54,1.12,1.13,,,,,,,,,
"CC(=O)c1c([S+]([O-])Cc2cccc(S(F)(F)(F)(F)F)c2)[nH]c2c(Br)ccc(Cl)c2c1=O (centres unmarked) [Compound 77, 3-acetyl-8-bromo-5-chloro-2-((3-(pentafluoro--sulfanyl)benzyl)sulfinyl)quinolin-4(1H)-one]",0.92,1.45,1.7,1.24,> 10,> 2,1.8,1.68,1.29,1.16,1.13,,,,,,,,,

# Now from value to molecule:
"IC50 [1, 3] [µM]","IC50 [1, 4] [µM]","IC50 [1, 5] [µM]","IC50 [1, 6] [µM]","IC50 [1, 7] [µM]","IC50 [1, 8] [µM]","IC50 [1, 9] [µM]","IC50 [1, 10] [µM]","IC50 [1, 11] [µM]",IC50 (melanoma cell lines) [µM],IC50 [2] [µM],"IC50 [1, 12] [µM]","IC50 [1, 13] [µM]","IC50 [1, 14] [µM]","IC50 [1, 15] [µM]","IC50 [1, 16] [µM]","IC50 [1, 17] [µM]","IC50 [1, 18] [µM]","IC50 [1, 19] [µM]","IC50 [1, 20] [µM]",SMILES
> 2,> 2,> 2,> 2,> 10,> 2,> 2,> 2,> 2,> 2,> 2,,,,,,,,,,"CC(=O)c1c([S+]([O-])Cc2ccc(SC(F)(F)F)cc2)[nH]c2c(Cl)ccc(Cl)c2c1=O (centres unmarked) [Compound 79, 3-acetyl-5,8-dichloro-2-((4-((trifluoromethyl)thio)benzyl)sulfinyl)quinolin-4(1H)-one]"
> 2,> 2,> 2,> 2,> 10,> 2,> 2,> 2,> 2,> 2,> 2,,,,,,,,,,"CC(=O)c1c([S+]([O-])Cc2ccc(S(F)(F)(F)(F)F)cc2)[nH]c2c(F)ccc(F)c2c1=O (centres unmarked) [Compound 80, 3-acetyl-5,8-difluoro-2-((4-(pentafluoro--sulfanyl)benzyl)sulfinyl)quinolin-4(1H)-one]"
> 2,> 2,> 2,> 2,> 10,> 2,> 2,> 2,> 2,> 2,> 2,,,,,,,,,,"CC(=O)c1c([S+]([O-])Cc2ccc(C(F)(F)F)o2)[nH]c2c(F)ccc(F)c2c1=O (centres unmarked) [Compound 81, 3-acetyl-5,8-difluoro-2-(((5-(trifluoromethyl)furan-2-yl)methyl)sulfinyl)quinolin-4(1H)-one]"
,,,,,,,,,> 2,> 2,> 2,> 2,> 2,> 2,> 10,> 2,> 2,> 2,> 2,"CC(=O)c1c([S+]([O-])Cc2cc(C)on2)[nH]c2c(F)ccc(F)c2c1=O (centres unmarked) [Compound 82, 3-acetyl-5,8-difluoro-2-(((5-methylisoxazol-3-yl)methyl)sulfinyl)quinolin-4(1H)-one]"
,,,,,,,,,> 2,> 2,> 2,> 2,> 2,> 2,> 10,> 2,> 2,> 2,> 2,"CC(C)C(=O)c1c([S+]([O-])Cc2ccc(SC(F)(F)F)cc2)[nH]c2c(F)ccc(F)c2c1=O (centres unmarked) [Compound 85, 5,8-difluoro-3-isobutyryl-2-((4-((trifluoromethyl)thio)benzyl)sulfinyl)quinolin-4(1H)-one]"
,,,,,,,,,> 2,> 2,> 2,> 2,> 2,> 2,> 10,> 2,> 2,> 2,> 2,"O=C(c1ccccc1)c1c([S+]([O-])Cc2ccc(S(F)(F)(F)(F)F)cc2)[nH]c2c(F)ccc(F)c2c1=O (centres unmarked) [Compound 87, 3-benzoyl-5,8-difluoro-2-((4-(pentafluoro--sulfanyl)benzyl)sulfinyl)quinolin-4(1H)-one]"
